Five compounds from patent US11065335B2, “Methods of treating leukemia using compositions containing bis(benzylthio)octanoic acid and ion pairs thereof” (Rafael Pharmaceuticals, Inc., priority 2007, dated 2021) can be followed below.

Structures can show the parent of a compound that is named as a salt. Some results are limits rather than exact numbers.

In data set [1] the test system is A2780 ovarian tumor cells and BXPC3 human pancreatic cancer cells. Put plainly: CellTiter Glo cell viability assay, text statements not split by cell line. Type of data set: cell-based. The conditions noted are these: for cell kill: 24 hrs; for impact of vehicle on cancer cell killing: vehicle alone 3200 μM. The protocol: Two types of human tumor cells were used in this investigation: BXPC3 human pancreatic cancer cells and A2780 human ovarian cancer cells. The BXPC3 cells were originally obtained from American Type Cell Culture (ATCC). […] The tumor cells were split at a ratio of 1:5 every 4-5 days by trypsinization and resuspended in fresh medium in a new flask. Cells were harvested for experiments at 70-90% confluency.
(§1) The corresponding vehicle concentrations were 64, 32, 16, 12, and 4 mM respectively. A sixty-four mM aliquot of vehicle was dissolved in 10 mL of water. […] A 5 μL aliquot of this stock solution was added to 95 μL of tumor cells in media. Upon dilution in the wells, the corresponding drug concentrations were 400, 200, 100, 75 and 25 μM respectively.
This gave a 16 mM solution.
This stock was further diluted serially in complete media to give 8 mM, 4 mM 2 mM, 1.5 mM and 0.5 mM working solutions.
The tumor cells were treated for 24 hrs with the test article in serum-containing medium. After 24 hrs of treatment the number of viable tumor cells was determined.
The number of cells targeted for the study was 4×10^3 per well in 100 μL of medium. The actual number of cells were counted and seeded in the wells of a 96 well-plate.
For each cell line the concentrations of test articles or vehicles specified above was used. Five μL of the working solution for each test article or vehicle was added to 95 μL of cell culture media. The corresponding final concentrations of test articles are 20 fold more diluted than the working solutions. […] Additionally, a set of wells was treated with cell culture medium in the absence of cells to obtain a value for background luminescence.
The number of viable cells was determined by using the CellTiter Glo® Assay. Specifically, reagents were mixed and allowed to come to room temperature according to instructions from Promega, Inc. (Madison, Wis.). Cell plates were removed from the cell culture incubator and left on the bench for 30 minutes until they reach room temperature. A one-hundred μL aliquot CellTiter Glo® reagent was added to each well with a 12-channel Eppendorf pipettor. The cells were lysed by shaking the plate for 2 minutes in a shaker. Then, the cells were kept at room temperature for 10 minutes to stabilize the luminescent signal. The luminescence was measured using the FLUOstar OPTIMA plate reader (BMG Labtech, Inc., Durham, N.C.).
Data from luminescence readings was copied onto EXCEL spreadsheets, and cell growth relative to untreated cells was calculated, using the following equation: […]
The calculated values were imported into SigmaPlot, v11. A Four-Parameter Logistic Curve of the “mean relative cell growth as a function of the concentrations of the test articles” was generated. The EC50 values were determined from the curves. The R-squared value provides an indication of the degree of fitness of data to the curve. For each experiment, the percentage of viable cells was be expressed as the mean of 9 replicates. The average was calculated by taking the mean±standard deviation of the three experiments.
(Cellular ATP, detected with luciferase, serves as a proxy for viable cell number.)

Data set [2] has as its system A2780 human ovarian cancer cells. The data set can be described thus: CellTiter Glo cell viability assay, A2780 cells. To be noted: Homo sapiens, A2780, 24 h. The protocol: (§2) Two types of human tumor cells were used in this investigation: BXPC3 human pancreatic cancer cells and A2780 human ovarian cancer cells. The BXPC3 cells were originally obtained from American Type Cell Culture (ATCC). The ovarian tumor cells were gifts from Roswell Park Cancer Institute, Buffalo, N.Y. All tumor cells were maintained at 37° C. in a humidified 5% CO2 atmosphere in T75 tissue culture flasks containing 20 mL of Roswell Park Memorial Institute (RPMI) 1640 containing 2 mM L-glutamine, 10% fetal bovine serum (FBS) and 1% penicillin and streptomycin (100 IU/mL penicillin and 100 μg/mL streptomycin). The tumor cells were split at a ratio of 1:5 every 4-5 days by trypsinization and resuspended in fresh medium in a new flask. Cells were harvested for experiments at 70-90% confluency.
as §1, with “CPI-613 (i.e., 6,8-bis(benzylthio)octanoic acid) stock solutions at concentrations of 8, 4, 2, 1.5 and 0.5 mM were prepared in the appropriate vehicles. The molar ratio of vehicle to CPI-613 was maintained at 8:1. The” for “The”, “water. Next, 8 mM of CPI-613 was added and the mixture was stirred until a clear solution was obtained.” for “water.”
(§3) For the sodium salt and potassium salt form of CPI-613, 1 equivalent of CPI-613 solid was dissolved in water. Sixty-two mg of CPI-613 (0.00016 mol) was added to 10 mL of water, then 165 μL of 1M NaOH or KOH was added and stirred until a clear solution was obtained. This gave a 16 mM solution. The resulting 16 mM solution was then serially diluted, thereby providing 8 mM and 4 mM solutions of the CPI-613 salt form. For the ammonium salt, vehicle to drug ratio was maintained at 8:1 and the formulation was prepared using procedures analogous to those described above in Section 2 relating to preparation of CPI-613 formulations in different vehicles.
(§4) CPI-613 formulated in 1M triethanolamine (TEA) was used as an internal control during formulation screening. To prepare a 16 mM of working stock of CPI-613, 50 mg/mL of CPI-613 (128.66 mM of CPI-613 in 1M TEA) was diluted in complete cell culture media containing 10% FBS. That is, 310 μL of a 128.66 mM solution of CPI-613 in 1M TEA was added to 2.19 mL of cell culture media. This stock was further diluted serially in complete media to give 8 mM, 4 mM 2 mM, 1.5 mM and 0.5 mM working solutions. On the day of testing, 5 μL of this working solution was added to 95 μL of cell culture media (20 fold dilution) resulting final concentrations of 400, 200, 100, 75 and 25 μM CPI-613, respectively. The ratio of CPI-613 to TEA was maintained at 1:8 ratio at all times.
(§5) The cell viability of CPI-613 formulations formulated at a ratio of 1:8, CPI-613 to vehicle, was assessed by exposing the A2780 ovarian tumor cells and BXPC3 human pancreatic cancer cells to the following CPI-613 concentrations: 400 μM (3200 μM vehicle), 200 μM (1600 μM vehicle), 100 μM (800 μM vehicle), 75 μM (600 μM vehicle) and 25 μM (200 μM vehicle) The impact of corresponding vehicles at 3200, 1600 and 800 μM concentrations was also tested in tumor cells for cell viability. […] CPI-613 in TEA was used as an internal control. The tumor cells were treated for 24 hrs with the test article in serum-containing medium. After 24 hrs of treatment the number of viable tumor cells was determined.
(§6) The number of cells targeted for the study was 4×10^3 per well in 100 μL of medium. The actual number of cells were counted and seeded in the wells of a 96 well-plate. The cells were incubated for ˜24 hrs before addition of CPI-613.
(§7) For each cell line the concentrations of test articles or vehicles specified above was used.

Data set [3] has as its system BXPC3 human pancreatic cancer cells. Put plainly: CellTiter Glo cell viability assay, BXPC3 cells. To be noted: Homo sapiens, BXPC-3, 24 h. The protocol: as §2
as §1, with “CPI-613 (i.e., 6,8-bis(benzylthio)octanoic acid) stock solutions at concentrations of 8, 4, 2, 1.5 and 0.5 mM were prepared in the appropriate vehicles. The molar ratio of vehicle to CPI-613 was maintained at 8:1. The” for “The”, “water. Next, 8 mM of CPI-613 was added and the mixture was stirred until a clear solution was obtained.” for “water.”
as §3, §4, §5, §6, §7

Data set [4] can be described thus: in vitro. To be noted: human, A2780 Cell Viability; for viability: 24 hrs; for viability at 24 h, 800 μM / viability at 24 h, 1600 μM / viability at 24 h, 3200 μM: A2780 ovarian cancer cells. The protocol: as §2
as §1, with “CPI-613 (i.e., 6,8-bis(benzylthio)octanoic acid) stock solutions at concentrations of 8, 4, 2, 1.5 and 0.5 mM were prepared in the appropriate vehicles. The molar ratio of vehicle to CPI-613 was maintained at 8:1. The” for “The”, “water. Next, 8 mM of CPI-613 was added and the mixture was stirred until a clear solution was obtained.” for “water.”
as §3, §4, §5, §6, §7

A short description of data set [5]: in vitro. To be noted: human, BXPC3 Cell Viability; for viability: 24 hrs; for viability at 24 h, 800 μM / viability at 24 h, 1600 μM / viability at 24 h, 3200 μM: BXPC3 pancreatic cancer cells. The protocol:
as §2
as §1, with “CPI-613 (i.e., 6,8-bis(benzylthio)octanoic acid) stock solutions at concentrations of 8, 4, 2, 1.5 and 0.5 mM were prepared in the appropriate vehicles. The molar ratio of vehicle to CPI-613 was maintained at 8:1. The” for “The”, “water. Next, 8 mM of CPI-613 was added and the mixture was stirred until a clear solution was obtained.” for “water.”
as §3, §4, §5, §6, §7

In the case of `O=C(O)CCCCC(CCSCc1ccccc1)SCc1ccccc1` (stereo not shown) [CPI-613 ammonium salt], the cell kill in data set [1] (ammonium salt formulation at 200 μM) is 70-80%; in data set [1] (ammonium salt formulation at 400 μM), 100%. Further, the viability at 25 µM in data set [2] (read-out: A2780 Cell Viability (ammonium salt formulations), CPI-613 25 μM, ratio 1:8) is above 95%; in data set [3] (read-out: BXPC3 Cell Viability (ammonium salt formulations), CPI-613 25 μM, ratio 1:8), above 95%. Also, the viability at 75 µM in data set [2] (read-out: A2780 Cell Viability (ammonium salt formulations), CPI-613 75 μM, ratio 1:8) is above 95%; in data set [3] (read-out: BXPC3 Cell Viability (ammonium salt formulations), CPI-613 75 μM, ratio 1:8) it was above 95%. For the same compound, the viability at 100 µM in data set [2] (read-out: A2780 Cell Viability (ammonium salt formulations), CPI-613 100 μM, ratio 1:8) is 70 to 95%; in data set [3] (read-out: BXPC3 Cell Viability (ammonium salt formulations), CPI-613 100 μM, ratio 1:8) it was above 95%. For the same compound, the viability at 200 µM was 10 to 30% in data set [2] (read-out: A2780 Cell Viability (ammonium salt formulations), CPI-613 200 μM, ratio 1:8) and 30 to 70% in data set [3] (read-out: BXPC3 Cell Viability (ammonium salt formulations), CPI-613 200 μM, ratio 1:8). The viability at 400 µM was below 10% in data set [2] (read-out: A2780 Cell Viability (ammonium salt formulations), CPI-613 400 μM, ratio 1:8) and below 10% in data set [3] (read-out: BXPC3 Cell Viability (ammonium salt formulations), CPI-613 400 μM, ratio 1:8).
`CNC[C@H](O)[C@@H](O)[C@H](O)[C@H](O)CO` [Meglumine]: the “impact of vehicle on cancer cell killing” value in data set [1] is reported as “did not show a significant impact on cancer cell killing”. For the same compound, the viability was above 95% in the data set “in vitro [4]” (vehicle alone 800 μM); above 95% in “in vitro [4]” (vehicle alone 1600 μM); above 95% in “in vitro [4]” (vehicle alone 3200 μM); 85 to 95% in “in vitro [5]” (vehicle alone 800 μM); 85 to 95% in “in vitro [5]” (vehicle alone 1600 μM); 85 to 95% in “in vitro [5]” (vehicle alone 3200 μM).
Take `NCCCC[C@H](N)C(=O)O` [Lysine]: the “impact of vehicle on cancer cell killing” value in data set [1] is “did not show a significant impact on cancer cell killing”. For the same compound, the viability at 24 h, 800 μM in the data set “in vitro [4]” (vehicle alone 800 μM) and in “in vitro [5]” (vehicle alone 800 μM) was above 95% throughout. Also, the viability at 24 h, 1600 μM in the data set “in vitro [4]” (vehicle alone 1600 μM) and in “in vitro [5]” (vehicle alone 1600 μM) was above 95% each time. In addition, the viability at 24 h, 3200 μM in “in vitro [4]” (vehicle alone 3200 μM) and in the data set “in vitro [5]” (vehicle alone 3200 μM) was above 95% each time.
In the case of `CCN(CC)CC` [Triethylamine], in data set [1], the “impact of vehicle on cancer cell killing” value was “did not show a significant impact on cancer cell killing”. The viability at 24 h, 800 μM in the data set “in vitro [4]” (vehicle alone 800 μM) and in the data set “in vitro [5]” (vehicle alone 800 μM) was above 95% in each case. Also, the viability at 24 h, 1600 μM in “in vitro [4]” (vehicle alone 1600 μM) and in “in vitro [5]” (vehicle alone 1600 μM) was above 95% in each case. The viability at 24 h, 3200 μM in “in vitro [4]” (vehicle alone 3200 μM) and in the data set “in vitro [5]” (vehicle alone 3200 μM) was above 95% throughout.
As to `CC(O)CN(CC(C)O)CC(C)O` (stereo not shown) [Triisopropanolamine], the “impact of vehicle on cancer cell killing” value in data set [1] is listed as “appear to have come cell killing effects”. In addition, the viability in “in vitro [4]” (vehicle alone 800 μM) is above 95%; in the data set “in vitro [4]” (vehicle alone 1600 μM), above 95%; in the data set “in vitro [4]” (vehicle alone 3200 μM) it was 70 to 85%; in “in vitro [5]” (vehicle alone 800 μM), above 95%; in “in vitro [5]” (vehicle alone 1600 μM) it was above 95%; in “in vitro [5]” (vehicle alone 3200 μM) it was 70 to 85%.
